Source: patent US10517889B2, “Modulators of SMAD7 expression” (Ionis Pharmaceuticals, Inc., priority 2017, dated 2019)
Strand notation (5' to 3'): a small letter for the sugar, then the base; units joined by * are phosphorothioate-linked, units joined directly phosphodiester-linked; [ ] holds rarer units or linkages, { } end groups; capitals alone tell only the bases. k = constrained ethyl (cEt); [5mC] = 5-methylcytosine; d = 2'-deoxy (DNA)

Tests used:
human SMAD7 mRNA [1] = experiment: Antisense inhibition of human SMAD7 mRNA expression in Hep3B cells by 3-10-3 cEt gapmers, 10,000 nM, electroporation (Example 2); type: cell-based; settings: approximately 24 hours
Outline: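 SMAD7 mRNA was measured by real-time PCR (RTS5062) with RiboGreen total-RNA normalization, about 24 h after 10,000 nM gapmer was delivered by electroporation into Hep3B cells at 20,000 per well. Gapmers were 16-mer 3-10-3 cEt, fully phosphorothioate; values are % inhibition versus untreated controls.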

human SMAD7 mRNA [2] = experiment: Dose-dependent inhibition of human SMAD7 mRNA expression in Hep3B cells (Example 3, Study 1 and 2); type: cell-based; settings: electroporation; for % inhibition of SMAD7 mRNA expression: approximately 16 hours; for IC50: Study 2 (740-20000 nM)
Method: The antisense oligonucleotides were tested in a series of experiments that had similar culture conditions as described below.
(§1) Cells were plated at a density of 20,000 cells per well and transfected using electroporation with 0.31 μM, 1.25 μM, 5.00 μM, or 20.00 μM concentrations of antisense oligonucleotide, as specified in the Tables below. ION 483663 was included in the assays for comparison. After a treatment period of approximately 16 hours, RNA was isolated from the cells and SMAD7 mRNA levels were measured by quantitative real-time PCR. Primer probe set RTS5062 was used to measure human SMAD7 mRNA levels. SMAD7 mRNA levels were adjusted according to total RNA content, as measured by RIBOGREEN®. Results are presented as percent inhibition of SMAD7 mRNA expression, relative to untreated control cells.
The half maximal inhibitory concentration (IC50) of each oligonucleotide is also presented.
as §1, with “0.74” for “0.31”, “2.22” for “1.25”, “6.67” for “5.00”, “below.” for “below. ION 483663 was included in the assays for comparison.”

[3] = Hep3B cells, electroporation, 10,000 nM antisense oligonucleotide, RTS5062, relative to untreated control cells
[4] = 740 nM, Study 2, relative to untreated control cells
[5] = SMAD7 mRNA, Hep3B cells, 10,000 nM antisense oligonucleotide, electroporation, primer probe set RTS5062, relative to untreated control cells
[6] = Hep3B cells, 10,000 nM antisense oligonucleotide, electroporation, RT-PCR primer probe set RTS5062, relative to untreated control cells
[7] = Hep3B cells, electroporation with 10,000 nM antisense oligonucleotide, primer probe set RTS5062, relative to untreated control cells
[8] = Hep3B cells, electroporation with 10,000 nM antisense oligonucleotide, SMAD7 mRNA by RT-PCR (RTS5062), relative to untreated control cells

Substance | % inhibition of SMAD7 mRNA expression (human SMAD7 mRNA [2]; [4]) [%] | % inhibition of SMAD7 mRNA expression (human SMAD7 mRNA [2]; 2220 nM, Study 2) [%] | % inhibition of SMAD7 mRNA expression (human SMAD7 mRNA [2]; 6670.0 nM, Study 2) [%] | % inhibition of SMAD7 mRNA expression (human SMAD7 mRNA [2]; 20000.0 nM, Study 2) [%] | IC50 (human SMAD7 mRNA [2]) [µM] | % Inhibition (human SMAD7 mRNA [1]; [8]) [%] | further results
799718 (antisense k[5mC]*kT*kG*d[5mC]*dT*dA*dG*dG*dG*dA*dT*dA*d[5mC]*kT*kG*kA) [compound 799718] | 23 | 52 | 66 | 72 | 4 |  | % inhibition of SMAD7 mRNA expression (human SMAD7 mRNA [1]; [3]): 65%
772553 (antisense kT*k[5mC]*kT*dT*dG*dA*dG*d[5mC]*dA*d[5mC]*d[5mC]*dG*dA*kG*kT*kG) [compound 772553] | 36 | 45 | 71 | 89 | 2 |  | % Inhibition (human SMAD7 mRNA [1]; [5]): 59%
800031 (kA*kG*kA*dA*dA*d[5mC]*dA*d[5mC]*dA*dG*dT*dT*d[5mC]*k[5mC]*k[5mC]*kT; antisense) [compound 800031] | 10 | 39 | 57 | 69 | 8 |  | % Inhibition (human SMAD7 mRNA [1]; [6]): 52%
799556 (kA*k[5mC]*kA*dA*d[5mC]*dA*dA*dT*dG*d[5mC]*dT*d[5mC]*dT*kG*kG*k[5mC]; antisense) [compound 799556] | 0 | 50 | 71 | 71 | 2 |  | % inhibition of SMAD7 mRNA expression (human SMAD7 mRNA [1]; [3]): 68%
799743 (antisense k[5mC]*kT*kG*dG*dA*dG*dT*dT*dA*dT*dT*d[5mC]*dT*k[5mC]*kA*kA) [compound 799743] | 0 | 43 | 44 | 64 | 5 |  | % Inhibition (human SMAD7 mRNA [1]; Hep3B cells, electroporation with 10,000 nM antisense oligonucleotide, RTS5062, percent inhibition of SMAD7 mRNA relative to untreated control cells): 51%
829942 (kG*k[5mC]*kA*dT*d[5mC]*dT*dG*dG*dA*d[5mC]*dA*dG*dT*k[5mC]*kA*kG; antisense) [compound 829942] | 44 | 70 | 84 | 94 | < 0.7 |  | % inhibition of SMAD7 mRNA expression (human SMAD7 mRNA [1]; Hep3B cells, electroporation, 10,000 nM, 3-10-3 cEt gapmers targeting SEQ ID NO: 3 and 4): 92%
799168 (antisense kG*k[5mC]*kT*dA*dA*dG*dA*dA*d[5mC]*dA*dG*dT*dG*kT*k[5mC]*kG) [compound 799168] | 15 | 13 | 36 | 54 | 5 |  | % inhibition of SMAD7 mRNA expression (human SMAD7 mRNA [1]; [7]): 75%
798987 (antisense kA*kA*kT*dG*dA*dT*dG*dA*d[5mC]*d[5mC]*dG*d[5mC]*d[5mC]*k[5mC]*k[5mC]*k[5mC]) [compound 798987] | 0 | 0 | 8 | 47 | 4 |  | % inhibition of SMAD7 mRNA expression (human SMAD7 mRNA [1]; [7]): 84%
799980 (k[5mC]*k[5mC]*kA*dA*d[5mC]*dG*dG*dT*dT*dG*d[5mC]*d[5mC]*dT*k[5mC]*kA*kT; antisense) [compound 799980] | 22 | 22 | 51 | 61 | 13 | 78 | 
830028 (antisense k[5mC]*kA*kG*dT*d[5mC]*dA*dA*dG*dT*dT*dA*d[5mC]*dA*kG*kT*k[5mC]) [compound 830028] | 54 | 70 | 85 | 93 | 3 | 75 | 
829859 (antisense kT*kT*kT*dT*dG*d[5mC]*dT*d[5mC]*d[5mC]*dG*d[5mC]*dA*d[5mC]*k[5mC]*kT*kT) [compound 829859] |  |  |  |  |  |  | % Inhibition (human SMAD7 mRNA [1]; SMAD7 mRNA, Hep3B cells, electroporation with 10,000 nM antisense oligonucleotide, primer probe set RTS5062, relative to untreated control cells): 39%
798809 (kT*kT*kG*dG*dG*dA*dA*dT*d[5mC]*dT*dG*dA*dA*kA*kG*k[5mC]; antisense) [compound 798809] |  |  |  |  |  |  | % inhibition of SMAD7 mRNA expression (human SMAD7 mRNA [1]; [7]): 2%
799867 (k[5mC]*kT*k[5mC]*d[5mC]*dA*dA*dT*d[5mC]*dT*dG*dG*d[5mC]*dT*kG*kG*kT; antisense) [compound 799867] |  |  |  |  |  | 24 | 
799066 (antisense kT*kG*kA*dA*dA*dA*dT*dA*dA*dT*dT*dG*dG*kT*kT*k[5mC]) [compound 799066] |  |  |  |  |  |  | % inhibition of SMAD7 mRNA expression (human SMAD7 mRNA [1]; [7]): 0%
830023 (antisense kT*k[5mC]*kA*d[5mC]*dA*dT*dG*d[5mC]*dT*dT*dT*dG*d[5mC]*kG*kG*kG) [compound 830023] |  |  |  |  |  | 57 | 
830198 (antisense kA*kG*kG*d[5mC]*dT*dA*d[5mC]*dA*d[5mC]*d[5mC]*dA*dA*dA*kG*kA*k[5mC]) [compound 830198] |  |  |  |  |  | 30 | 

Substance | % inhibition of SMAD7 mRNA expression (human SMAD7 mRNA [2]; [4]) [%] | % inhibition of SMAD7 mRNA expression (human SMAD7 mRNA [2]; 2220 nM, Study 2) [%] | % inhibition of SMAD7 mRNA expression (human SMAD7 mRNA [2]; 6670.0 nM, Study 2) [%] | % inhibition of SMAD7 mRNA expression (human SMAD7 mRNA [2]; 20000.0 nM, Study 2) [%] | IC50 (human SMAD7 mRNA [2]) [µM] | % Inhibition (human SMAD7 mRNA [1]; [8]) [%] | further results
798992 (antisense kA*k[5mC]*kT*d[5mC]*d[5mC]*dT*dG*dA*d[5mC]*dA*dA*dG*dT*kG*kA*kA) [compound 798992] |  |  |  |  |  |  | % inhibition of SMAD7 mRNA expression (human SMAD7 mRNA [1]; [7]): 29%
799941 (antisense kT*kT*kT*dA*d[5mC]*dT*dA*d[5mC]*d[5mC]*dT*dT*d[5mC]*d[5mC]*kA*kG*kA) [compound 799941] |  |  |  |  |  | 44 | 
800086 (antisense kA*kG*k[5mC]*dA*dG*d[5mC]*dA*dG*d[5mC]*d[5mC]*d[5mC]*dT*dG*kT*kA*k[5mC]) [compound 800086] |  |  |  |  |  | 40 | 
830079 (kA*kT*kA*d[5mC]*d[5mC]*d[5mC]*dT*dG*d[5mC]*dA*d[5mC]*dT*dT*kT*k[5mC]*kT; antisense) [compound 830079] |  |  |  |  |  | 22 | 
799539 (k[5mC]*k[5mC]*k[5mC]*dG*dT*d[5mC]*d[5mC]*dA*d[5mC]*dG*dG*dA*dA*k[5mC]*kG*kG; antisense) [compound 799539] |  |  |  |  |  |  | % inhibition of SMAD7 mRNA expression (human SMAD7 mRNA [1]; [3]): 41%
799959 (antisense kA*kG*k[5mC]*dT*dT*dG*dT*dG*dG*dA*dG*dA*dG*kT*kG*k[5mC]) [compound 799959] |  |  |  |  |  |  | % Inhibition (human SMAD7 mRNA [1]; [6]): 1%
799463 (antisense kT*kG*kG*dT*dA*dA*dG*d[5mC]*dA*d[5mC]*dT*dA*dG*kG*kT*kT) [compound 799463] |  |  |  |  |  |  | % inhibition of SMAD7 mRNA expression (human SMAD7 mRNA [1]; [7]): 33%
799989 (kT*kG*k[5mC]*dA*d[5mC]*d[5mC]*dT*dG*dG*d[5mC]*dA*dA*d[5mC]*k[5mC]*kT*kG; antisense) [compound 799989] |  |  |  |  |  | 57 | 
799195 (antisense k[5mC]*kA*kA*dT*dG*d[5mC]*dT*dA*dA*dA*dT*dT*dT*k[5mC]*k[5mC]*kA) [compound 799195] |  |  |  |  |  |  | % Inhibition (human SMAD7 mRNA [1]; [7]): 43%
799580 (kA*kA*kA*d[5mC]*d[5mC]*dT*dT*d[5mC]*d[5mC]*dG*dA*dA*dA*kG*kG*kA; antisense) [compound 799580] |  |  |  |  |  |  | % inhibition of SMAD7 mRNA expression (human SMAD7 mRNA [1]; [3]): 33%
799193 (antisense kT*kA*kA*dA*dT*dT*dT*d[5mC]*d[5mC]*dA*dA*dT*dG*kA*kG*kA) [compound 799193] |  |  |  |  |  |  | % Inhibition (human SMAD7 mRNA [1]; [7]): 43%
790618 (kA*kG*k[5mC]*dA*d[5mC]*dT*dA*d[5mC]*dA*dA*dT*dG*d[5mC]*kT*kA*kA; antisense) [compound 790618] |  |  |  |  |  |  | % Inhibition (human SMAD7 mRNA [1]; [5]): 24%
830091 (kA*kA*kT*dA*d[5mC]*dA*d[5mC]*dA*dA*dG*dA*d[5mC]*d[5mC]*k[5mC]*kT*kG; antisense) [compound 830091] |  |  |  |  |  | 37 | 
799422 (antisense kG*kA*kT*dT*dT*dT*dA*dA*d[5mC]*dA*dG*dT*dT*kG*kT*k[5mC]) [compound 799422] |  |  |  |  |  |  | % inhibition of SMAD7 mRNA expression (human SMAD7 mRNA [1]; [7]): 33%
799832 (antisense k[5mC]*kA*k[5mC]*d[5mC]*d[5mC]*dA*dT*dA*d[5mC]*dT*dT*dG*dG*kA*kA*kG) [compound 799832] |  |  |  |  |  |  | % inhibition of SMAD7 mRNA expression (human SMAD7 mRNA [1]; [3]): 14%
799189 (antisense kA*kA*kT*dG*d[5mC]*dT*dT*d[5mC]*dT*d[5mC]*dT*dT*dG*kT*kT*k[5mC]) [compound 799189] |  |  |  |  |  |  | % inhibition of SMAD7 mRNA expression (human SMAD7 mRNA [1]; [7]): 33%
